Results as given in PubChem BioAssay (NCI).
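Method: 48-hour compound exposure of cells in 96-well plates, five concentrations, linear interpolation of endpoints. At the TGI there is no net growth.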

What was measured:
Assay in all cases: inhibition of tumour cell growth, NCI panel, 48 h
786-0 renal = system: 786-0 renal
A549 NSCLC = system: A549 NSCLC
ACHN renal = system: ACHN renal
BT-549 breast = system: BT-549 breast
CAKI-1 renal = system: CAKI-1 renal
CCRF-CEM leukemia = system: CCRF-CEM leukemia
COLO 205 colon = system: COLO 205 colon
DU-145 prostate = system: DU-145 prostate
EKVX NSCLC = system: EKVX NSCLC
HCC-2998 colon = system: HCC-2998 colon
HCT-116 colon = system: HCT-116 colon
HCT-15 colon = system: HCT-15 colon
HL-60(TB) leukemia = system: HL-60(TB) leukemia
HOP-62 NSCLC = system: HOP-62 NSCLC
HOP-92 NSCLC = system: HOP-92 NSCLC
HS 578T breast = system: HS 578T breast
HT29 colon = system: HT29 colon
IGROV1 ovarian = system: IGROV1 ovarian
K-562 leukemia = system: K-562 leukemia
KM12 colon = system: KM12 colon
LOX IMVI melanoma = system: LOX IMVI melanoma
M14 melanoma = system: M14 melanoma
MALME-3M melanoma = system: MALME-3M melanoma
MCF7 breast = system: MCF7 breast
MDA-MB-231 breast = system: MDA-MB-231 breast
MDA-MB-435 = system: MDA-MB-435
MDA-N = system: MDA-N
MOLT-4 leukemia = system: MOLT-4 leukemia
NCI-H226 lung = system: NCI-H226 lung
NCI-H23 lung = system: NCI-H23 lung
NCI-H522 lung = system: NCI-H522 lung
NCI/ADR-RES ovarian = system: NCI/ADR-RES ovarian
OVCAR-3 ovarian = system: OVCAR-3 ovarian
OVCAR-4 ovarian = system: OVCAR-4 ovarian
OVCAR-5 ovarian = system: OVCAR-5 ovarian
OVCAR-8 ovarian = system: OVCAR-8 ovarian
PC-3 prostate = system: PC-3 prostate
RPMI-8226 leukemia = system: RPMI-8226 leukemia
RXF 393 renal = system: RXF 393 renal
SF-268 CNS = system: SF-268 CNS
SF-295 CNS = system: SF-295 CNS
SF-539 CNS = system: SF-539 CNS
SK-MEL-2 melanoma = system: SK-MEL-2 melanoma
SK-MEL-28 melanoma = system: SK-MEL-28 melanoma
SK-MEL-5 melanoma = system: SK-MEL-5 melanoma
SK-OV-3 ovarian = system: SK-OV-3 ovarian
SN12C renal = system: SN12C renal
SNB-19 CNS = system: SNB-19 CNS
SNB-75 CNS = system: SNB-75 CNS
SR leukemia = system: SR leukemia
SW-620 colon = system: SW-620 colon
T-47D breast = system: T-47D breast
TK-10 renal = system: TK-10 renal
U251 CNS = system: U251 CNS
UACC-257 melanoma = system: UACC-257 melanoma
UACC-62 melanoma = system: UACC-62 melanoma
UO-31 renal = system: UO-31 renal
A498 renal = system: A498 renal
NCI-H460 lung = system: NCI-H460 lung

Measured: TGI

CC1(c2nc3cc(Cl)c(Cl)cc3[nH]2)CCC(CO)C(C)(C)O1 (stereo not drawn)
34.2 µM: HT29 colon
84 µM: MALME-3M melanoma
30.3 µM: NCI-H522 lung
66.9 µM: SNB-75 CNS
36.7 µM: HL-60(TB) leukemia
44.5 µM: NCI/ADR-RES ovarian
92.5 µM: M14 melanoma
61.4 µM: OVCAR-8 ovarian
73.8 µM: COLO 205 colon
38.6 µM: KM12 colon
39.9 µM: UO-31 renal
74.3 µM: OVCAR-3 ovarian
56.6 µM: NCI-H226 lung
90.4 µM: SK-MEL-2 melanoma
39.2 µM: UACC-62 melanoma
95.3 µM: SF-295 CNS
92 µM: SK-MEL-28 melanoma
76.4 µM: NCI-H23 lung
53.9 µM: HS 578T breast
70.5 µM: SF-539 CNS
> 100 µM: 786-0 renal | A549 NSCLC | ACHN renal | CAKI-1 renal | CCRF-CEM leukemia | DU-145 prostate | HCC-2998 colon | HCT-116 colon | HCT-15 colon | HOP-62 NSCLC | HOP-92 NSCLC | K-562 leukemia | LOX IMVI melanoma | MCF7 breast | MDA-MB-435 | MDA-N | MOLT-4 leukemia | OVCAR-4 ovarian | OVCAR-5 ovarian | RPMI-8226 leukemia | RXF 393 renal | SF-268 CNS | SK-OV-3 ovarian | SN12C renal | SNB-19 CNS | SR leukemia | SW-620 colon | T-47D breast | TK-10 renal | U251 CNS | UACC-257 melanoma
77.6 µM: IGROV1 ovarian | MDA-MB-231 breast
27.1 µM: SK-MEL-5 melanoma
97.3 µM: PC-3 prostate
44.8 µM: BT-549 breast
87 µM: EKVX NSCLC

CC1(C)C(=O)C(C)(C)C12SSC1(S2)C(C)(C)C(=O)C1(C)C
21.1 µM: HL-60(TB) leukemia
> 100 µM: 786-0 renal | A498 renal | A549 NSCLC | ACHN renal | BT-549 breast | CAKI-1 renal | COLO 205 colon | DU-145 prostate | EKVX NSCLC | HCC-2998 colon | HCT-116 colon | HCT-15 colon | HOP-62 NSCLC | HOP-92 NSCLC | HS 578T breast | HT29 colon | IGROV1 ovarian | K-562 leukemia | KM12 colon | LOX IMVI melanoma | M14 melanoma | MALME-3M melanoma | MCF7 breast | MDA-MB-231 breast | MDA-MB-435 | MDA-N | MOLT-4 leukemia | NCI-H226 lung | NCI-H23 lung | NCI-H460 lung | NCI/ADR-RES ovarian | OVCAR-3 ovarian | OVCAR-4 ovarian | OVCAR-5 ovarian | OVCAR-8 ovarian | PC-3 prostate | RPMI-8226 leukemia | SF-268 CNS | SF-295 CNS | SF-539 CNS | SK-MEL-2 melanoma | SK-MEL-28 melanoma | SK-MEL-5 melanoma | SK-OV-3 ovarian | SN12C renal | SNB-19 CNS | SNB-75 CNS | SR leukemia | SW-620 colon | T-47D breast | TK-10 renal | U251 CNS | UACC-257 melanoma | UACC-62 melanoma | UO-31 renal
